What was measured:
NpNR = target: T1, NpNR (Narcissus papyraceus, UniProt A0A346TLF8); experiment: HPLC-MS/MS of norbelladine formed, with and without NADPH; format: biochemical; details: 1 mM NADPH; 10 uM tyramine, 300 uM 3,4-DHBA; 100 mM sodium citrate pH 6.0; 35 C; 2 h
T1 construct: gene NorRed1; full-length 269 aa (29 kDa), N-terminal MBP fusion (pMAL-c2x), tag kept, E. coli Rosetta (DE3) pLysS

LaNR = target: T2, LaNR (Leucojum aestivum, UniProt Z9Z857OJM6); experiment: as above; format: biochemical; details: […] NADPH; […] tyramine, […],4-DHBA; […] sodium citrate pH […]; […] C; […] h
T2 construct: full-length 269 aa (29 kDa), N-terminal MBP fusion (pMAL-c2x), tag kept, E. coli Rosetta (DE3) pLysS
T2 sequence (Z9Z857OJM6 1-271): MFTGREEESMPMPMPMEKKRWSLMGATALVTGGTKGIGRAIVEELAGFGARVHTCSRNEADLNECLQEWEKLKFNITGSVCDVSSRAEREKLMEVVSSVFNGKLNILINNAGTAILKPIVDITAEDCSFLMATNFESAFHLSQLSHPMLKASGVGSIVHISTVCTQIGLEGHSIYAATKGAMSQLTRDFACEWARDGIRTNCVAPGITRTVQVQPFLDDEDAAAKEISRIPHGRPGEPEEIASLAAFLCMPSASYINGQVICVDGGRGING

[1] = target: N. papyraceus noroxomaritidine/norcraugsodine reductase, yeast two-hybrid fusions (Narcissus papyraceus)
N. papyraceus noroxomaritidine/norcraugsodine reductase, yeast two-hybrid fusions (Narcissus papyraceus), sequence (A0A346TLF8 entry or part of it): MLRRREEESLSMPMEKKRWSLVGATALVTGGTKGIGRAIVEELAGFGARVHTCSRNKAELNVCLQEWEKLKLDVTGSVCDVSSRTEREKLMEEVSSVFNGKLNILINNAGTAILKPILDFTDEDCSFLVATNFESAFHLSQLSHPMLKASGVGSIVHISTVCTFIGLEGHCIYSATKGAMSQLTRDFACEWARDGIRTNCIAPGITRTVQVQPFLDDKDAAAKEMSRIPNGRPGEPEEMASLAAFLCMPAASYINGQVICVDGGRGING

T1 sequence (A0A346TLF8 1-269): as the sequence (A0A346TLF8 entry or part of it) above

norbelladine produced by yeast cultures co-expressing NpNBS and NpNR, fed with tyramine and 3,4-DHBA (HPLC-MS/MS, peak area relative to papaverine); none detected with either enzyme alone (relative peak area ratio) [1]	Molecule	HPLC-MS/MS of norbelladine formed, with and without NADPH (NpNR)	HPLC-MS/MS of norbelladine formed, with and without NADPH (LaNR)
–	NC(=O)C1=CN([C@@H]2O[C@H](COP(=O)(O)OP(=O)(O)OC[C@H]3O[C@@H](n4cnc5c(N)ncnc54)[C@H](OP(=O)(O)O)[C@@H]3O)[C@@H](O)[C@H]2O)C=CC1 [NADPH]	NR assays lacking NADPH resulted in no norbelladine production	NR assays lacking NADPH resulted in no norbelladine production
0.22	N. papyraceus norbelladine synthase, yeast two-hybrid fusions (enzyme)	–	–

Reference: article PMC10499049, “Characterization of norbelladine synthase and noroxomaritidine/norcraugsodine reductase reveals a novel catalytic route for the biosynthesis of Amaryllidaceae alkaloids including the Alzheimer’s drug galanthamine” (Frontiers in Plant Science, 2023)
